Reference: patent US10040804B2, “Compounds targeting proteins, compositions, methods, and uses thereof” (BioTheryX, Inc., priority 2016, dated 2018)

Legend:
[1] = test system: IL-6; assay: IL-6 expression in LPS stimulated PBMCs (Meso Scale); format: cell-based, human; settings: Homo sapiens, PBMC, LPS-stimulated PBMCs; for inhibition at 0.1 µM: compound concentration 0.1 μM
Description: FIGS. 6 and 9B are graphs showing IL-6 expression in LPS stimulated peripheral blood mononuclear cells (PBMCs). PBMCs were plated in 96-well plates and pretreated with compound (Compound 1-9 individually) for 1 h, and then induced with 100 ng/mL LPS for 18-24 h. Cytokines were measured according to MesoScale protocol. Negative control wells were treated with DMSO. Compound activity was measured as a percentage of LPS-induced activity. “Rev” is lenalidomide.
(§1) Frozen primary blood mononuclear cells (PBMCs) and frozen CD14+ mobilized peripheral blood monocytes were purchased from AllCells. Cells were quick thawed, and washed 1-time with RPMI-1640/10% FBS/1% Penicillin/1% Streptomycin and plated in 96-well plates at 200,000 cells per well. Cells were pretreated with DMSO only, Compound 5013 (lenolidamide) or the indicated compound for 1 h and then induced with 100 ng/mL lipopolysaccharide (LPS) for 18-24 h. The supernatant was analyzed for IL-1 beta, IL-6, and TNF-α using Meso Scale assay according to manufacturer's protocol. The negative control wells were treated with DMSO.
(§2) PBMCs: AllCells PB003F, Normal Peripheral Blood MNC.
(§3) Media: RPMI 1640/10% FBS/1% Pen-Strep.

[2] = target: T1, GSPT1 (Homo sapiens, UniProt P15170); assay: GSPT1 protein levels by Western Blot analysis; format: cell-based; settings: DMSO = 100.00; for remaining activity at 0.1 µM: 100 nM compound concentration; for remaining activity at 1 µM: 1 μM compound concentration
T1 construct: Whole cell extracts were prepared using RIPA buffer according to manufacturer's protocol (Pierce); endogenous in cells
T1 sequence (P15170 whole entry): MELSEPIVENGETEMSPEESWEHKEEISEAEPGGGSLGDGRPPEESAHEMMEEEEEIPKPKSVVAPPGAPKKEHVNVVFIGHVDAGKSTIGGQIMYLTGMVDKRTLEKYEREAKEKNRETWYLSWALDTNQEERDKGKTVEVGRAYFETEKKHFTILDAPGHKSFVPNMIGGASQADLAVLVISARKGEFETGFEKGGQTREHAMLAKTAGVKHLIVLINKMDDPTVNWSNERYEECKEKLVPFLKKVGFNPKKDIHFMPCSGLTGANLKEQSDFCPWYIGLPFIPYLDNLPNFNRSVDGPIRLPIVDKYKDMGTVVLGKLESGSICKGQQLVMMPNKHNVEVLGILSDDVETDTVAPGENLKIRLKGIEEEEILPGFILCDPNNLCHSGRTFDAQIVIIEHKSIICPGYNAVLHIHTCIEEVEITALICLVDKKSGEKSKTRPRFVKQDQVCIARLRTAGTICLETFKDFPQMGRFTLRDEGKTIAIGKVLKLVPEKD
T1 sequence (Q96SW2 whole entry, further chain): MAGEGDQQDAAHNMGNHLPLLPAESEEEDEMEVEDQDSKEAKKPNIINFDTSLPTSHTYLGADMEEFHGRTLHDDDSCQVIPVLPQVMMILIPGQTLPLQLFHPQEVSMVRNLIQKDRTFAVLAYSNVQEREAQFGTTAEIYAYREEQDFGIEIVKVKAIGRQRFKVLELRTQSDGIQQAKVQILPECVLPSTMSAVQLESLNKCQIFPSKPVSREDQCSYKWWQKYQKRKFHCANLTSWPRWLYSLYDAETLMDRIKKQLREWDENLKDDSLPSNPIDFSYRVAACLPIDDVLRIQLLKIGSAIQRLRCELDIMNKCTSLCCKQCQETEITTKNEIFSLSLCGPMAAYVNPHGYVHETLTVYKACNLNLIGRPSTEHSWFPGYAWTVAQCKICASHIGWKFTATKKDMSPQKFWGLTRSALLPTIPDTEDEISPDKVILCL
T1 sequence (Q16531 whole entry partner): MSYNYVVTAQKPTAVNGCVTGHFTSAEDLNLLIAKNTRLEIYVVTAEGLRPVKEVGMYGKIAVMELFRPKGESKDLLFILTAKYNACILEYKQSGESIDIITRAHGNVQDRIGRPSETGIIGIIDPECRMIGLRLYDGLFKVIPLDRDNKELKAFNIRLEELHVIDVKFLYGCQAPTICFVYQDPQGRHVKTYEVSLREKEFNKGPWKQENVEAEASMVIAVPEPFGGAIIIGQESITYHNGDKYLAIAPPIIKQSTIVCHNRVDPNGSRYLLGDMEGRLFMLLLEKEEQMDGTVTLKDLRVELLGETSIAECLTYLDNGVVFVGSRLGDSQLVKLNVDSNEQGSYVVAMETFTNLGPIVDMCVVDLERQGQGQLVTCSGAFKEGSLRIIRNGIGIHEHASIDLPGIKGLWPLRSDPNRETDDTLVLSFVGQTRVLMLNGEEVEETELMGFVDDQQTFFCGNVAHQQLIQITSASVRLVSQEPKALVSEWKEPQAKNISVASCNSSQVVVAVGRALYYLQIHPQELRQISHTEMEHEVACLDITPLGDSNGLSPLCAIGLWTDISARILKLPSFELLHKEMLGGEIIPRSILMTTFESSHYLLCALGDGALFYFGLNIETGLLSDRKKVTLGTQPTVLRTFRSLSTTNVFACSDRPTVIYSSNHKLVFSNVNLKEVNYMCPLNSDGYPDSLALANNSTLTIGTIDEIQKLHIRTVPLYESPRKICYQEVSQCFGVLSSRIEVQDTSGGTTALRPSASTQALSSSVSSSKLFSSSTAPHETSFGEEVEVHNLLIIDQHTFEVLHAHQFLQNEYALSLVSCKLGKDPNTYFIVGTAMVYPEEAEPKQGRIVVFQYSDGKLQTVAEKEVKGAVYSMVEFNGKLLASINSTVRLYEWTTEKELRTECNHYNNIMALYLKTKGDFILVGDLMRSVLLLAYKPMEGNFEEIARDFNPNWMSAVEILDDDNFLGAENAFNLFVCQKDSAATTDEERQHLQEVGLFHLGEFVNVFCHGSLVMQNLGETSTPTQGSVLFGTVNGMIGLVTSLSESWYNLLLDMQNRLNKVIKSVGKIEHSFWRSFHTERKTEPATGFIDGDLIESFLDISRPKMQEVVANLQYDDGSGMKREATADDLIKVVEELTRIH
Description: Cells were lysed using RIPA Buffer (Pierce) and a Western Blot analysis was performed using anti-GSPT1 and anti-β-actin antibodies. FIG. 11B is a graph showing the expression levels of GSPT1 protein in Molm-13 (AML) cells. Protein expression levels were measured using the LiCor Odyssey instrumentation and methods.
Western Blot Protocol: Cell lines were grown in RPMI 1640 supplemented with streptomycin, penicillin and 10% fetal bovine serum.
Cells were cultured at approximately 10^6 cells per mL and incubated in DMSO or each of the indicated compounds for 6-8 h. Whole cell extracts were prepared using RIPA buffer according to manufacturer's protocol (Pierce). Briefly, 2×10^6 cells were washed once in PBS, the cell pellets were resuspended in RIPA buffer and allowed to incubate for 15 minutes on ice. Cells debris was removed by centrifugation and the cleared whole cell lysates were transferred to new tubes for further analysis.
For Western blot analysis, whole cell protein extracts were separated on 4-12% SDS-polyacrylamide gels, transferred to nitrocellulose, and probed with the indicated primary antibodies. Membranes were subsequently washed and probed with the appropriate IRDye secondary antibodies (LI-COR). The signal was detected using the Odyssey Imaging System (LI-COR).
GSPT1: Rabbit anti-GSPT1 was obtained from Abcam, ab126090 (Cambridge, Eng.)

[3] = test system: IL-1β; assay: IL-1β expression in LPS stimulated PBMCs (Meso Scale); format: cell-based, human; settings: Homo sapiens, PBMC; for inhibition at 0.1 µM: compound concentration 0.1 μM
Description: FIGS. 5 and 9A are graphs showing IL-1-beta expression in LPS stimulated peripheral blood mononuclear cells (PBMCs), PBMCs were plated in 96-well plates and pretreated with compound (Compound 1-9 individually) for 1 h, and then induced with 100 ng/mL LPS for 18-24 h. Cytokines in the media were measured according to MesoScale protocol. Negative control wells were treated with DMSO. Compound activity is measured as a percentage of LPS-induced activity. “Rev” is lenalidomide.
as §1, §2, §3

[4] = test system: H1048 cells; assay: H1048 cell viability (CellTiter-Glo); format: cell-based; settings: Homo sapiens, NCI-H1048, 72 h, H1048, 3 days, DMSO = 100.00; for viability at 1 µM: 1 μM compound concentration; for viability at 10 µM: 10 μM compound concentration
Description: (§4) FIG. 10A is a graph showing antiproliferative activity in H1048 (SCLC) cells. FIG. 10B is a graph showing antiproliferative activity in Molm-13 (AML) cells. In FIGS. 10A and 10B, the cells were incubated for 72 hrs with Compound 9 at the indicated concentrations or DMSO. Compound activity was measured based on the signal from remaining viable cells.
(§5) Molm-13 cells were cultivated in RPMI-1640 (10% FBS/1% pen-strep) and were plated in white walled 96-well plates at 20,000 cells/well. H1048 cells were cultured in DMEM:F12 media supplemented with 5% fetal bovine serum, insulin, transferrin, sodium selenite, hydrocortisone, β-estradiol, penicillin and streptomycin, and were plated in white walled 96-well plates at 20,000 cells/well. MDA-MB-231 cells were cultured in DMEM media supplemented with 10% fetal bovine serum, penicillin and streptomycin, and were plated in white walled 96-well plates at 10,000 cells/well. Cells were treated with compound or DMSO (0.1%, control) and the cultures were incubated for 3 days at 37° C. and 5% CO2. Following the incubation period, 100 μL of CellTiterGlow (CTG) reagent (CellTiter-Glo® Luminescent Cell Viability Assay, Promega (Madison, Wis.)) was added to each well. Following a 10 min incubation with shaking, luminescence was measured using a Victor Wallac Luminometer.

[5] = test system: Molm-13 cells; assay: Molm-13 cell viability (CellTiter-Glo); format: cell-based; settings: Homo sapiens, MOLM-13, read-out: % Inhibition (MOLM-13 Cell Viability); for cytotoxicity at 0.1 µM: compound concentration 0.1 μM
Description: as §4, §5

[6] = test system: TNF-α; assay: TNF-α expression in LPS stimulated PBMCs (Meso Scale); format: cell-based, human; settings: Homo sapiens, PBMC; for inhibition at 0.1 µM: compound concentration 0.1 μM
Description: FIGS. 7 and 9C are graphs showing TNF-a expression in LPS stimulated peripheral blood mononuclear cells (PBMCs). PBMCs were plated in 96-well plates and pretreated with compound (Compound 1-9 individually) for 1 h, and then induced with 100 ng/mL LPS for 18-24 h. Cytokines in the media were measured according to MesoScale protocol. The negative control wells were treated with DMSO. Compound activity is measured as a percentage of LPS-induced activity. “Rev” is lenalidomide.
as §1, §2, §3

[7] = test system: MDA-MB-231 cells; assay: MDA-MB-231 cell viability (CellTiter-Glo); format: cell-based; settings: Homo sapiens, 72 h, 3 days, DMSO = 100.00; for viability at 1 µM: 1 μM compound concentration; for viability at 10 µM: 10 μM compound concentration
Description: as §5

remaining activity at 0.1 µM [2] [%] | remaining activity at 1 µM [2] [%] | Structure (SMILES) | inhibition at 0.1 µM [1] [%] | inhibition at 0.1 µM [3] [%] | viability at 1 µM [4] [%] | viability at 10 µM [4] [%] | cytotoxicity at 0.1 µM [5] [%] | inhibition at 0.1 µM [6] [%] | viability at 1 µM [7] [%] | viability at 10 µM [7] [%] | inhibition at 1 µM ([1]; compound concentration 1 μM) [%] | inhibition at 1 µM ([3]; compound concentration 1 μM) [%] | cytotoxicity at 1 µM ([5]; compound concentration 1 μM) [%] | inhibition at 1 µM ([6]; compound concentration 1 μM) [%]
0.64 | 2.61 | Cc1ccc(NC(=O)NCc2scc3c2CN(C2CCC(=O)NC2=O)C3=O)cc1C(C)C (centres unmarked) [Compound 47, 1-((5-(2,6-Dioxopiperidin-3-yl)-4-oxo-5,6-dihydro-4H-thieno[3,4-c]pyrrol-1-yl)methyl)-3-(3-isopropyl-4-methylphenyl)urea] | 100 | 99 | 8.91 | 8.58 | 100 | 97 | 21.8 | 19.3 |  |  |  | 
1.46 | 3.85 | Cc1c(Cl)cc(NC(=O)NCc2scc3c2CN(C2CCC(=O)NC2=O)C3=O)cc1C(C)C (centres unmarked) [Compound 48, 1-(3-Chloro-5-isopropyl-4-methylphenyl)-3-((5-(2,6-dioxopiperidin-3-yl)-4-oxo-5,6-dihydro-4H-thieno[3,4-c]pyrrol-1-yl)methyl)urea] | 100 | 96 | 9.03 | 6.89 | 100 | 92 | 22.2 | 21.7 |  |  |  | 
11.9 | 20 | Cc1cc(C)c(NC(=O)NCc2scc3c2CN(C2CCC(=O)NC2=O)C3=O)cc1Cl (centres unmarked) [Compound 49, 1-(5-Chloro-2,4-dimethylphenyl)-3-((5-(2,6-dioxopiperidin-3-yl)-4-oxo-5,6-dihydro-4H-thieno[3,4-c]pyrrol-1-yl)methyl)urea] | 87 | 61 | 7.67 | 6.1 | 100 | 62 | 24.3 | 19.7 |  |  |  | 
0.58 | 1.05 | Cc1ccc(NC(=S)NCc2scc3c2CN(C2CCC(=O)NC2=O)C3=O)cc1Cl (centres unmarked) [Compound 52, 1-(3-Chloro-4-methylphenyl)-3-((5-(2,6-dioxopiperidin-3-yl)-4-oxo-5,6-dihydro-4H-thieno[3,4-c]pyrrol-1-yl)methyl)thiourea] | 100 | 98 | 9.22 | 10.3 | 99 | 95 | 22.4 | 20.5 |  |  |  | 
23.5 | 6.18 | Cc1ccc(NC(=O)NCc2scc3c2CN(C2CCC(=O)NC2=O)C3=O)cn1 (centres unmarked) [Compound 53, 1-((5-(2,6-Dioxopiperidin-3-yl)-4-oxo-5,6-dihydro-4H-thieno[3,4-c]pyrrol-1-yl)methyl)-3-(6-methylpyridin-3-yl)urea] | 90 | 60 | 8.51 | 8.09 | 100 | 65 | 27.6 | 21.3 |  |  |  | 
2.25 | 2.72 | Cc1ccc(NC(=O)NCc2scc3c2CN(C2CCC(=O)NC2=O)C3=O)cc1C(F)(F)F (centres unmarked) [Compound 54, 1-((5-(2,6-Dioxopiperidin-3-yl)-4-oxo-5,6-dihydro-4H-thieno[3,4-c]pyrrol-1-yl)methyl)-3-(4-methyl-3-(trifluoromethyl)phenyl)urea] | 100 | 96 | 8.11 | 6.12 | 100 | 93 | 22.6 | 22.4 |  |  |  | 
1.51 | 2.86 | O=C1CCC(N2Cc3c(csc3CNC(=O)Nc3ccc(C(F)(F)F)c(Cl)c3)C2=O)C(=O)N1 (centres unmarked) [Compound 55, 1-(3-chloro-4-(trifluoromethyl)phenyl)-3-((5-(2,6-dioxopiperidin-3-yl)-4-oxo-5,6-dihydro-4H-thieno[3,4-c]pyrrol-1-yl)methyl)urea] | 100 | 99 | 7.63 | 7.94 | 100 | 96 | 20.2 | 19 |  |  |  | 
265 | 28.4 | Cc1ccc(NC(=O)NCc2scc3c2CN([C@H]2CCCC(=O)NC2=O)C3=O)nc1Cl [Compound 57, (S)-1-(6-Chloro-5-methylpyridin-2-yl)-3-((5-(2,7-dioxoazepan-3-yl)-4-oxo-5,6-dihydro-4H-thieno[3,4-c]pyrrol-1-yl)methyl)urea] |  |  | 12.4 | 8.7 |  |  | 107 | 52 | 32 | 42 | 45 | 44
